Test results from patent US20250032488A1, “METHODS OF TREATMENT USING LOU064” (NOVARTIS AG, priority 2021, published 2025).

Tests used:
[1] = molecular target: T1, BTK (Mus musculus, UniProt P35991); assay: BTK occupancy in spleen, PCA study; assay type: in vivo, mice; conditions: 2.5 hours after second oral dose, read-out: BTK occupancy in spleen relative to vehicle controls
T1 construct: each spleen was crushed and lysed in a GentleMACS; from tissue; host or cells: mouse spleen (BALB/c, C57Bl6) and lung (C57Bl6)
Experimental: The levels of BTK occupancy after dosing of LOU064 was determined in separate ELISAs for total BTK protein and for bound BTK (=free BTK).
Covalent binding of compounds to BTK was determined with immunoassays for free BTK (i.e., not covalently occupied by compound) and total BTK protein. For free BTK measurements, samples were incubated with a biotinylated covalent BTK probe (Pulz R et al, ACS Med. Chem. Lett. 2019, 10, 1467-1472) then samples were added to streptavidin ELISA plates to allow binding of probe-bound BTK. The binding of the probe to BTK is mutually exclusive with compound binding to BTK. Plate-bound BTK was detected with an anti-BTK antibody (D3H5, Cell Signaling Technology). For total BTK measurements, an ELISA plate was coated with D3H5 anti-BTK to capture total BTK. An anti-BTK antibody (no. 53, BD Biosciences) directed to a different epitope was then used to detect captured BTK. The respective free BTK levels for each sample were normalized to the total BTK level in the same sample, and these ratios were expressed as percentage of the vehicle control samples. […]
The relative BTK occupancy was calculated as the ratio of free BTK (signal of bound BTK) to total BTK for each sample: Ri=free BTK/total BTK. The individual Ri values were then normalized to the vehicle group and expressed as percent occupancy: (average of Ri vehicle group-Ri)/(average of Ri vehicle group)*100%

[2] = Co-administration with oral contraceptives; assay type: in vivo
From the text: Therefore, in a preferred embodiment, LOU064 is co-administered with oral contraceptives.

[3] = LOU064 levels in blood, RPA study; assay type: in vivo, mice
Experimental: Female C57BI6 mice (Charles River, France), 8-10 weeks of age, were used. The back of the mice was shaved 24 hours prior to the skin injections. This allowed any potential irritation of the skin to resolve. The Arthus reaction was triggered two hours after compound dosing in the dose-response study or at the timepoints noted in the time-course study. To elicit the Arthus reaction, 50 μl of PBS (control site) or polyclonal rabbit anti-ovalbumin IgG at a concentration of 30 μg in PBS (C6534, Sigma) was injected i.d. into the dorsal skin. The intradermal injection was followed immediately by an i.v. injection of 200 μl ovalbumin (20 mg/kg) in saline (05450 Fluka). Three hours after the injection of the ovalbumin the mice were killed, bled for monitoring of the compound concentration and the spleens removed for BTK occupancy measurement. The thickness of the injected control and anti-ovalbumin IgG skin sites was measured using a digital caliper, and the thickness of the anti-ovalbumin IgG injected sites minus the saline control sites were then calculated for the mice in all treatment groups.
Blood samples were taken as denoted and compound measurement was performed. Blood samples were spiked with a structurally similar internal standard mixed with acetonitrile (4 volumes) and centrifuged at ˜ 4000 rpm (4° C.). Supernatant was then transferred into a microtiter plate. An aliquot of each sample was injected into an LC-MS/MS system for determination of concentrations of the parent molecule.

[4] = system: LAD2 cells; assay: FcER-induced mast cell degranulation in LAD2 cells; assay type: cell-based; conditions: Homo sapiens, n=3, read-out: IC50, IgE/FcER-induced mast cell degranulation (β-tryptase)
From the text: Rationale and method: The human mastocytosis cell line LAD2 expresses FcERI and upon crosslinking of the receptor the cells degranulate and release inflammatory mediators like β-tryptase and hexosaminidase (Wernersson et al. 2014, Immunology; 14 (7): 478-94). The assay involves 4-hydroxy-3-iodo-5-nitrophenylacetic acid (NIP) haptenized bovine serum albumin (BSA) and the NIP-specific chimeric IgE antibody JW8 (Neuberger, M.S. et al. (1985), Nature 314 (6008), pp 268-70. doi: 10.1038/314268a0). The LAD2 cells were sensitized with JW8 IgE antibody and then incubated with serial compound dilutions for 30 minutes at 37° C. Then degranulation was triggered by adding haptenized NIP-BSA to crosslink the FcER. After one hour, supernatants were collected and analyzed for B-tryptase levels.

[5] = system: human primary skin-derived mast cells; assay: Histamine release from skin-derived human mast cells; assay type: cell-based; conditions: Mast cell, n=2 donors
Experimental: Rationale and method: Skin tissue was used as a source of primary human tissue mast cells. Surgical skin discard samples were provided under informed consent and collected by the University Hospital Basel in accordance with the Swiss Human Research Act and approval of the responsible ethic committee (Ethikkommission Nordwest und Zentralschweiz). Skin tissue was dissociated and intact mast cells were prepared according to the protocol of Kulka and Metcalfe (Kulka et al. 2010, current protocols in Immunology; SUPPL. 90:1-11). The isolated mast cells were characterized phenotypically and used for a degranulation assay as described above ((Neuberger, M.S. et al. (1985), Nature 314 (6008), pp 268-70. doi: 10.1038/314268a0). The mast cells were sensitized with JW8 IgE antibody and then pre-incubated with serial compound dilutions for 30 minutes at 37° C. Then degranulation was triggered by adding haptenized NIP-BSA to crosslink the FcERI. After 30 minutes, supernatants were collected and analyzed for histamine with an HTRF-based immunoassay (Cisbio Bioassays).

T1 sequence (P35991 whole entry): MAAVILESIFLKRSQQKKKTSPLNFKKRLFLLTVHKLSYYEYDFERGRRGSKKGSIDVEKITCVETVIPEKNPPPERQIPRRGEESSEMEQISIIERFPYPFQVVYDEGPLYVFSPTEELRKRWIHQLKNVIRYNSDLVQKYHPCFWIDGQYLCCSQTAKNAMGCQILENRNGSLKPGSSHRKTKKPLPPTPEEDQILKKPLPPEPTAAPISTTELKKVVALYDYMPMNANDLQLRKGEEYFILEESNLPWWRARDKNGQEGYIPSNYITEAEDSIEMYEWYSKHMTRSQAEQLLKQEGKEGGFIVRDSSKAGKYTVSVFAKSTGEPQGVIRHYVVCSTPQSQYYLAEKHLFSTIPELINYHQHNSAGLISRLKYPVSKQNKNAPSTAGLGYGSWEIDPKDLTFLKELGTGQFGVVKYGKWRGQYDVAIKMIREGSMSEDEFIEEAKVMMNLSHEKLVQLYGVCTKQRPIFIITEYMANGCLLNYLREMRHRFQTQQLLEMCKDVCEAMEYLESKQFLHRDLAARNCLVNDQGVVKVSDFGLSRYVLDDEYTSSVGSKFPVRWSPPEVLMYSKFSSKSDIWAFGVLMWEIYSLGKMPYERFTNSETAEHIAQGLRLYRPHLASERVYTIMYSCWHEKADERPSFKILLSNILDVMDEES

With `C=CC(=O)N(C)CCOc1c(N)ncnc1-c1cc(F)cc(NC(=O)c2ccc(C3CC3)cc2F)c1C` [LOU064, N-(3-(6-amino-5-(2-(N-methylacrylamido)ethoxy)pyrimidin-4-yl)-5-fluoro-2-methylphenyl)-4-cyclopropyl-2-fluorobenzamide] the receptor occupancy at 3 mg/kg [1] was 89.1%, the “Impact on exposure and efficacy of oral contraceptives (ethinylestradiol or levonorgestrel)” value [2] was “without a major impact” and the concentration at 5 h ([3]; female, C57BI6, mouse, whole blood, oral, 3 mg/Kg single p.o., 5 hours after dosing) was 2.04 nM. It also gave a concentration at 5 h ([3]; female, C57BI6, mouse, whole blood, oral, 10 mg/Kg single p.o., 5 hours after dosing, Mean ± SD) of 2.87 ± 0.58 nM, a concentration at 5 h ([3]; female, C57BI6, mouse, whole blood, oral, 30 mg/Kg single p.o., 5 hours after dosing, Mean ± SD) of 25.2 ± 20.9 nM and a concentration at 5 h ([3]; female, C57BI6, mouse, whole blood, oral, 100 mg/Kg single p.o., 5 hours after dosing, Mean ± SD) of 140 ± 63.9 nM. The concentration at 5 h ([3]; female, C57BI6, mouse, whole blood, single oral dose of 30 mg/kg, 5 hours post-dose, Mean ± SD (n = 5)) was 28.4 ± 18.2 nM, the concentration at 8 h ([3]; female, C57BI6, mouse, whole blood, single oral dose of 30 mg/kg, 8 hours post-dose, Mean ± SD (n = 5)) was 9.2 ± 6.7 nM and the Concentration in blood ([3]; single oral dose of 30 mg/kg, 19 hours post-dose) was “Below LLOQ”. For the same molecule, the IC50 [4] was 7 nM and the IC50 [5] was 16.5 nM.
